Results: PMC5823406, “Vehicle development, pharmacokinetics and toxicity of the anti-invasive agent 4-fluoro-3’,4’,5’-trimethoxychalcone in rodents” (PLoS ONE, 2018)
Several values for one entry are separate records, joined by “and”; a condition that tells them apart may be missing. Equal values may be shown once. Read-outs that look alike come from different tables or passages of the source. Marks after values point to notes of the source that are not given here.

Experiments:
[1] = Protein binding and recovery; assay type: in vitro ADME; settings: Human plasma
Aqueous solubility = assay type: physicochemical; settings: test concentration 200 μM
From the text: Table 3 In vitro physicochemical, stability and metabolism data. | column: Value

[2] = Plasma PK study (IV and PO) in male Sprague-Dawley rats; assay type: in vivo, rat
From the text: Six male Sprague-Dawley rats (200–350 g) were obtained from Hilltop Labs. Animals were assigned randomly to two groups (IV or PO) of 3 upon arrival. Duration of acclimation was approximately two days. Animals were healthy at the start of the trial.
Animals subjected to IV dosing were fitted with a jugular vein cannula (JVC) under isoflurane anesthesia (induction 4%, maintenance 2.0%, oxygen 1 L/min) and under an external heating source. Post-operative analgesia was provided in the form of 2.5–5 mg/kg of ketoprofen subcutaneously. Benzylpenicillin (60 mg) was given intramuscularly to prevent infection. Sterile 0.9% NaCl was injected subcutaneously under the back skin using a 21G needle during recovery to replace fluid loss. Animals were placed under a heat lamp and monitored until they regained full consciousness. […] Surgically modified animals were housed individually, monitored hourly for the first 4 h and then daily over a 2-day recovery period.
Animals were maintained in a well-controlled temperature (20–24°C) and humidity (30%-70%) environment with 12 h light/dark cycles. Conventional cages with wood chip bedding were used. Animals were identified by a cage label. The study was not blinded. Food was withheld from all animals for a minimum of twelve hours prior to test article administration and returned at approximately 4 h post-dose. Water was supplied ad libitum.
C16 was dosed in cassette with two undisclosed compounds of similar chemical structure. Dosing solutions were prepared in 100% DMSO on the day of dosing. The concentration of C16 was 1 and 5 mg/mL for IV and PO dosing, respectively. C16 was administered at 1 mg/kg IV via JVC or at 10 mg/kg PO.
Sampling took place pre-dose, 5, 15, 30 min, 1, 2, 4, and 8 h post-dose. Blood samples (0.3 mL) were collected via the JVC, placed into chilled tubes containing sodium heparin and kept on ice until centrifugation. Plasma preparation involved centrifugation at a temperature of 2 to 8°C at 3,000 g for 5 min. Plasma samples were stored frozen at -70°C until analysis. No necropsy was performed.
Pharmacokinetic parameters were estimated by a non-compartmental model using WinNonlin (v5.2.1 or higher) software. The maximum plasma/blood concentrations (c0) after IV dosing were estimated by extrapolation of the first two time points back to t = 0. The maximum blood concentration (cmax) and the time to reach maximum blood drug concentration (tmax) after PO dosing were derived from the data. The area under the time-concentration curve (AUC) was calculated using the linear trapezoidal rule with calculation to the last quantifiable data point, and with extrapolation to infinity if applicable. Plasma/blood half-life (t1/2) was calculated from 0.693/slope of the terminal elimination phase. Mean residence time (MRT) was calculated by dividing the area under the moment curve (AUMC) by the AUC. Clearance (CL) was calculated from dose/AUC. Steady-state volume of distribution (Vss) was calculated from CL*MRT. Bioavailability was determined by dividing the individual dose-normalized PO AUC values by the respective average dose-normalized intravenous (IV) AUC value. Samples that were below the limit of quantification were not used in the calculation of averages, and were treated as zero for pharmacokinetic data analysis. […]
(mAU.s) (mAU.s) peak area) (mAU.s) (mAU.s) peak area) (mAU.s) (mAU.s) peak area) […]
a. Dosing solution preparation
The dosing solution was prepared as a cassette to contain all three test articles in the same solution. IV dosing was fixed at 2 mg/mL of C16 and the two other test articles in neat DMSO as the vehicle, with a dosing volume 0.5 mL/kg (slow injection). PO dosing was set at 10 mg/mL of C16 and the two other test articles in neat DMSO as the vehicle, with a dosing volume of 1 mL/kg.
Individual plasma concentrations for C16 are shown in Table F and Table G. All data are expressed as ng/mL of the […]
free drug. […]

[3] = male, Sprague-Dawley, rat, plasma, iv, 1 mg/kg, male Sprague-Dawley rat, IV 1 mg/kg, vehicle DMSO, average
[4] = male, Sprague-Dawley, rat, plasma, iv, 1 mg/kg, rat plasma, IV 1 mg/kg, individual animals 1-3
[5] = male, Sprague-Dawley, rat, plasma, po, 10 mg/kg, male Sprague-Dawley rat, PO 10 mg/kg, vehicle DMSO, average
[6] = male, Sprague-Dawley, rat, plasma, po, 10 mg/kg, male Sprague-Dawley rat, PO 10 mg/kg, vehicle DMSO, calculated for two out of three animals
[7] = plasma, male Sprague-Dawley rat, IV 1 mg/kg, vehicle DMSO, average
[8] = rat plasma, IV 1 mg/kg, individual animals 1-3, 1 mg/kg
[9] = rat plasma, PO 10 mg/kg, individual animals 4-6, 10 mg/kg
[10] = rat plasma, PO 10 mg/kg, individual animals 5-6, 10 mg/kg

SMILES: COc1cc(C(=O)/C=C/c2ccc(F)cc2)cc(OC)c1OC [C16, 4-fluoro-3’,4’,5’-trimethoxychalcone]
- fraction unbound at 100 μM [1]: 0.01
- recovery at 100 μM [1]: 90%
- Aqueous solubility (Aqueous solubility; PBS, pH 7.4): 7.9 µM
- Aqueous solubility (Aqueous solubility; simulated gastric fluid): 9.1 µM
- Aqueous solubility (Aqueous solubility; simulated intestinal fluid): 2.4 µM
- AUC(0-inf) [2, 3]: 215 ng·h/mL
- AUC(0-t) [2, 3]: 211 ng·h/mL
- MRT last [2, 3]: 0.76 h
- clearance [2, 3]: 82.5 mL/min/kg
- half-life [2, 3]: 1.93 h
- C0 ([2]; male, Sprague-Dawley, rat, plasma, iv, 1 mg/kg, male Sprague-Dawley rat, IV 1 mg/kg, vehicle DMSO, average, extrapolated to t = 0): 1260 ng/mL
- Vd ([2]; male, Sprague-Dawley, rat, plasma, iv, 1 mg/kg, plasma, male Sprague-Dawley rat, IV 1 mg/kg, vehicle DMSO, average, read-out: Vss): 4.77 L/kg
- Tmax ([2]; male, Sprague-Dawley, rat, plasma, iv, 1 mg/kg, plasma, male Sprague-Dawley rat, IV 1 mg/kg, vehicle DMSO, average, read-out: tmax): 0 h
- AUC(0-inf) [2, 4]: 227 ng·h/mL
- AUC(0-t) [2, 4]: 224 ng·h/mL
- MRT last [2, 4]: 0.7 h
- clearance [2, 4]: 73.3 mL/min/kg
- half-life [2, 4]: 1.8 h
- Tmax ([2]; male, Sprague-Dawley, rat, plasma, iv, 1 mg/kg, rat plasma, IV 1 mg/kg, individual animals 1-3, read-out: tmax): 0 h
- concentration at 0.5 h ([2]; male, Sprague-Dawley, rat, plasma, iv, 1 mg/kg, rat, IV 1 mg/kg, 0.50 h, animals 1-3, read-out: Individual plasma concentration): 32.4 ng/mL
- concentration at 1 h ([2]; male, Sprague-Dawley, rat, plasma, iv, 1 mg/kg, rat, IV 1 mg/kg, 1.0 h, animals 1-3, read-out: Individual plasma concentration): 23.1 ng/mL
- concentration at 2 h ([2]; male, Sprague-Dawley, rat, plasma, iv, 1 mg/kg, rat, IV 1 mg/kg, 2.0 h, animals 1-3, read-out: Individual plasma concentration): 14.3 ng/mL
- concentration at 4 h ([2]; male, Sprague-Dawley, rat, plasma, iv, 1 mg/kg, rat, IV 1 mg/kg, 4.0 h, animals 1-3, read-out: Individual plasma concentration): 4.94 ng/mL
- concentration at 8 h ([2]; male, Sprague-Dawley, rat, plasma, iv, 1 mg/kg, rat, IV 1 mg/kg, 8.0 h, animals 1-3, read-out: Individual plasma concentration): 1.34 ng/mL
- AUC(0-t) [2, 5]: 146 ng·h/mL
- MRT last [2, 5]: 3.67 h
- AUC(0-inf) [2, 6]: 161 ng·h/mL
- half-life [2, 6]: 3.67 h
- Bioavailability ([2]; male, Sprague-Dawley, rat, plasma, po, 10 mg/kg, plasma, male Sprague-Dawley rat, PO 10 mg/kg, vehicle DMSO, average, read-out: Bioavailability): 6.91%
- cmax ([2]; male, Sprague-Dawley, rat, plasma, po, 10 mg/kg, plasma, male Sprague-Dawley rat, PO 10 mg/kg, vehicle DMSO, average, read-out: cmax): 32.2 ng/mL
- Tmax ([2]; male, Sprague-Dawley, rat, plasma, po, 10 mg/kg, plasma, male Sprague-Dawley rat, PO 10 mg/kg, vehicle DMSO, average, read-out: tmax): 2.83 h
- MRT last ([2]; male, Sprague-Dawley, rat, plasma, po, 10 mg/kg, rat plasma, PO 10 mg/kg, individual animals 4-6): 4.92 h
- concentration at 0.5 h ([2]; male, Sprague-Dawley, rat, plasma, po, 10 mg/kg, rat, PO 10 mg/kg, 0.50 h, animals 4-6, read-out: Individual plasma concentration): 22.5 ng/mL
- concentration at 2 h ([2]; male, Sprague-Dawley, rat, plasma, po, 10 mg/kg, rat, PO 10 mg/kg, 2.0 h, animals 4-6, read-out: Individual plasma concentration): 15.1 ng/mL
- Dose-normalized AUClast [2, 7]: 211 kg·ng·h/mL/mg
- Dose-normalized AUC∞ [2, 7]: 215 kg·ng·h/mL/mg
- Dose-normalized AUClast ([2]; plasma, male Sprague-Dawley rat, PO 10 mg/kg, vehicle DMSO, average): 14.6 kg·ng·h/mL/mg
- Dose-normalized AUC∞ ([2]; plasma, male Sprague-Dawley rat, PO 10 mg/kg, vehicle DMSO, calculated for two out of three animals): 16.1 ^f h∙kg ng/mL/mg
- AUClast [2, 8]: 145 ng·h/mL and 264 ng·h/mL
- AUC∞ [2, 8]: 149 ng·h/mL and 269 ng·h/mL
- CL [2, 8]: 112 mL/min/kg and 62 mL/min/kg
- MRTlast [2, 8]: 0.87 h and 0.71 h
- Vss [2, 8]: 3.73 L/kg and 7.30 L/kg and 3.27 L/kg
- c0 [2, 8]: 1718 ng/mL and 659 ng/mL and 1395 ng/mL
- t1/2 [2, 8]: 2.00 h
- AUClast [2, 9]: 236 ng·h/mL and 88.0 ng·h/mL and 114 ng·h/mL
- Bioavailability [2, 9]: 11.2% and 4.17% and 5.39%
- Dose Normalized AUClast [2, 9]: 23.6 kg·ng·h/mL/mg and 8.80 kg·ng·h/mL/mg and 11.4 kg·ng·h/mL/mg
- MRTlast [2, 9]: 3.60 h and 2.48 h
- Tmax [2, 9]: 8.00 h
- cmax [2, 9]: 47.1 ng/mL and 15.9 ng/mL and 33.5 ng/mL
- AUC∞ [2, 10]: 219 ng·h/mL
- Dose Normalized AUC∞ [2, 10]: 10.2 kg·ng·h/mL/mg and 21.9 kg·ng·h/mL/mg
- t1/2 [2, 10]: 11.0 h
- Adverse effects after intravenous and oral administration ([2]; rat, 1 mg/kg IV and 10 mg/kg PO, cassette in 100% DMSO): No adverse effects were observed
- Individual plasma concentration ([2]; rat, IV 1 mg/kg, 0.083 h, animals 1-3, 1 mg/kg): 568 ng/mL and 345 ng/mL and 693 ng/mL
- Individual plasma concentration ([2]; rat, IV 1 mg/kg, 0.25 h, animals 1-3, 1 mg/kg): 62.1 ng/mL and 94.6 ng/mL and 171 ng/mL
- Individual plasma concentration ([2]; rat, IV 1 mg/kg, 0.50 h, animals 1-3, 1 mg/kg): 31.9 ng/mL and 63.2 ng/mL
- Individual plasma concentration ([2]; rat, IV 1 mg/kg, 1.0 h, animals 1-3, 1 mg/kg): 19.1 ng/mL and 25.4 ng/mL
- Individual plasma concentration ([2]; rat, IV 1 mg/kg, 2.0 h, animals 1-3, 1 mg/kg): 8.99 ng/mL and 12.6 ng/mL
- Individual plasma concentration ([2]; rat, IV 1 mg/kg, 4.0 h, animals 1-3, 1 mg/kg): 4.34 ng/mL and 6.41 ng/mL
- Individual plasma concentration ([2]; rat, IV 1 mg/kg, 8.0 h, animals 1-3, 1 mg/kg): 1.12 ng/mL and 1.58 ng/mL
- Individual plasma concentration ([2]; rat, PO 10 mg/kg, 0.25 h, animals 4-6, 10 mg/kg): 21.8 ng/mL and 15.9 ng/mL and 33.5 ng/mL
- Individual plasma concentration ([2]; rat, PO 10 mg/kg, 0.50 h, animals 4-6, 10 mg/kg): 14.8 ng/mL and 24.0 ng/mL
- Individual plasma concentration ([2]; rat, PO 10 mg/kg, 1.0 h, animals 4-6, 10 mg/kg): 28.3 ng/mL and 13.6 ng/mL and 22.0 ng/mL
- Individual plasma concentration ([2]; rat, PO 10 mg/kg, 2.0 h, animals 4-6, 10 mg/kg): 11.4 ng/mL and 18.2 ng/mL
- Individual plasma concentration ([2]; rat, PO 10 mg/kg, 4.0 h, animals 4-6, 10 mg/kg): 27.9 ng/mL and 11.7 ng/mL and 13.6 ng/mL
- Individual plasma concentration ([2]; rat, PO 10 mg/kg, 8.0 h, animals 4-6, 10 mg/kg): 47.1 ng/mL and 8.04 ng/mL and 5.96 ng/mL
